Each molecule was assayed against GMPPNP-loaded KRAS G12C (Homo sapiens, UniProt P01116, G12C) (assay: KRAS G12C RAF Disruption Assay (HTRF)). Conditions: recombinant GMPPNP-loaded KRAS G12C (5 nM), 20 min with compound; GST-RAF1 RBD (9 nM); HTRF signal; read-out: KRASG12C RAF Disruption Assay (IC50).
Assay type: biochemical
Outline: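 GMPPNP-loaded KRAS G12C (5 nM) was preincubated with compound for 20 min at room temperature in Tris pH 7.5 buffer with NaCl, MgCl2, DTT and BSA. GST-RAF1 RBD (9 nM) was added for 20 min, then SA-Tb (0.25 nM) for 3 h. IC50 was fitted from the HTRF 520/495 ratio.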

Chain of GMPPNP-loaded KRAS G12C (P01116 1-188 isoform P01116-2 G12C): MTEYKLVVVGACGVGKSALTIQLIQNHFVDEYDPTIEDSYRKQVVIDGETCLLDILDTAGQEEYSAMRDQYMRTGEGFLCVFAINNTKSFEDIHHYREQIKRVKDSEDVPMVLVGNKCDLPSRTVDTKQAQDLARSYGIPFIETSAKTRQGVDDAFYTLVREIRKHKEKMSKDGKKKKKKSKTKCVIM

IC50	Compound
390 nM	N#CC[C@H]1CN(c2nc(OC[C@@]34CCCN3C[C@H](F)C4)nc3c(F)c(-c4cc(Cl)ccc4C(F)(F)F)ncc23)CCN1C(=O)/C(F)=C/c1nccs1 [Example 46, 2-((S)-1-((Z)-2-fluoro-3-(thiazol-2-yl)acryloyl)-4-(8-fluoro-7-(5-chloro-2-(trifluoromethyl)phenyl)-2-(((2R, 7aS)-2-fluorotetrahydro-1H-pyrrolizin-7a(5H)-yl)methoxy)pyrido[4,3-d]pyrimidin-4-yl)piperazin-2-yl)acetonitrile]
100 nM	C#Cc1cccc2cccc(-c3ncc4c(N5CCN(C(=O)/C(F)=C/c6nccs6)CC5)nc(OC[C@@]56CCCN5C[C@H](F)C6)nc4c3F)c12 [Example 47, (Z)-1-(4-(7-(8-ethynylnaphthalen-1-yl)-8-fluoro-2-(((2R, 7aS)-2-fluorotetrahydro-1H-pyrrolizin-7a(5H)-yl)methoxy)pyrido[4,3-d]pyrimidin-4-yl)piperazin-1-yl)-2-fluoro-3-(thiazol-2-yl)prop-2-en-1-one]
800 nM	N#Cc1cccc2cccc(-c3ncc4c(N5CCN(C(=O)/C(F)=C/c6ccccn6)CC5)nc(OC[C@@]56CCCN5C[C@H](F)C6)nc4c3F)c12 [Example 49, 8-(8-fluoro-4-(4-((Z)-2-fluoro-3-(pyridin-2-yl)acryloyl)piperazin-1-yl)-2-(((2R, 7aS)-2-fluorotetrahydro-1H-pyrrolizin-7a(5H)-yl)methoxy)pyrido[4,3-d]pyrimidin-7yl)-1-naphthonitrile]
840 nM	N#Cc1cccc2cccc(-c3ncc4c(N5CCN(C(=O)/C(F)=C/c6nccs6)CC5)nc(OC[C@@]56CCCN5C[C@H](F)C6)nc4c3F)c12 [Example 50, 8-(8-fluoro-4-(4-((Z)-2-fluoro-3-(thiazol-2-yl)acryloyl)piperazin-1-yl)-2-(((2R, 7aS)-2-fluorotetrahydro-1H-pyrrolizin-7a(5H)-yl)methoxy)pyrido[4,3-d]pyrimidin-7yl)-1-naphthonitrile]
360 nM	Cn1ncc2cccc(-c3ncc4c(N5CCN(C(=O)/C(F)=C/c6ccccn6)[C@@H](CC#N)C5)nc(OC[C@@]56CCCN5C[C@H](F)C6)nc4c3F)c21 [Example 51, 2-((S)-4-(8-fluoro-2-(((2R, 7aS)-2-fluorotetrahydro-1H-pyrrolizin-7a(5H)-yl)methoxy)-7-(1-methyl-1H-indazol-7-yl)pyrido[4,3-d]pyrimidin-4-yl)-1-((Z)-2-fluoro-3-(pyridin-2-yl)acryloyl)piperazin-2-yl)acetonitrile]
430 nM	Cn1ncc2cccc(-c3ncc4c(N5CCN(C(=O)/C(F)=C/c6nccs6)[C@@H](CC#N)C5)nc(OC[C@@]56CCCN5C[C@H](F)C6)nc4c3F)c21 [Example 52, 2-((S)-4-(8-fluoro-2-(((2R, 7aS)-2-fluorotetrahydro-1H-pyrrolizin-7a(5H)-yl)methoxy)-7-(1-methyl-1H-indazol-7-yl)pyrido[4,3-d]pyrimidin-4-yl)-1-((Z)-2-fluoro-3-(thiazol-2-yl)acryloyl)piperazin-2-yl)acetonitrile]
44 nM	C#Cc1c(F)ccc2cccc(-c3ncc4c(N5CCN(C(=O)/C(F)=C/c6nccs6)CC5)nc(OC[C@@]56CCCN5C[C@H](F)C6)nc4c3F)c12 [Example 53, (Z)-1-(4-(7-(8-ethynyl-7-fluoronaphthalen-1-yl)-8-fluoro-2-(((2R, 7aS)-2-fluorotetrahydro-1H-pyrrolizin-7a(5H)-yl)methoxy)pyrido[4,3-d]pyrimidin-4-yl)piperazin-1-yl)-2-fluoro-3-(thiazol-2-yl)prop-2-en-1-one]
5 nM	C#Cc1c(F)ccc2cc(O)cc(-c3ncc4c(N5CCN(C(=O)/C(F)=C/c6ncco6)CC5)nc(OC[C@@]56CCCN5C[C@H](F)C6)nc4c3F)c12 [Example 54, (Z)-1-(4-(7-(8-ethynyl-7-fluoro-3-hydroxynaphthalen-1-yl)-8-fluoro-2-(((2R, 7aS)-2-fluorotetrahydro-1H-pyrrolizin-7a(5H)-yl)methoxy)pyrido[4,3-d]pyrimidin-4-yl)piperazin-1-yl)-2-fluoro-3-(oxazol-2-yl)prop-2-en-1-one]
2 nM	C#Cc1c(F)ccc2cc(O)cc(-c3ncc4c(N5CCN(C(=O)/C(F)=C/c6cccnn6)CC5)nc(OC[C@@]56CCCN5C[C@H](F)C6)nc4c3F)c12 [Example 55, (Z)-1-(4-(7-(8-ethynyl-7-fluoro-3-hydroxynaphthalen-1-yl)-8-fluoro-2-(((2R, 7aS)-2-fluorotetrahydro-1H-pyrrolizin-7a(5H)-yl)methoxy)pyrido[4,3-d]pyrimidin-4-yl)piperazin-1-yl)-2-fluoro-3-(pyridazin-3-yl)prop-2-en-1-one]
6 nM	C#Cc1c(F)ccc2cc(O)cc(-c3ncc4c(N5CCN(C(=O)/C(F)=C/c6cnccn6)CC5)nc(OC[C@@]56CCCN5C[C@H](F)C6)nc4c3F)c12 [Example 56, (Z)-1-(4-(7-(8-ethynyl-7-fluoro-3-hydroxynaphthalen-1-yl)-8-fluoro-2-(((2R, 7aS)-2-fluorotetrahydro-1H-pyrrolizin-7a(5H)-yl)methoxy)pyrido[4,3-d]pyrimidin-4-yl)piperazin-1-yl)-2-fluoro-3-(pyrazin-2-yl)prop-2-en-1-one]
4 nM	C#Cc1c(F)ccc2cc(O)cc(-c3ncc4c(N5CCN(C(=O)/C(F)=C/c6ncccn6)CC5)nc(OC[C@@]56CCCN5C[C@H](F)C6)nc4c3F)c12 [Example 57, (Z)-1-(4-(7-(8-ethynyl-7-fluoro-3-hydroxynaphthalen-1-yl)-8-fluoro-2-(((2R, 7aS)-2-fluorotetrahydro-1H-pyrrolizin-7a(5H)-yl)methoxy)pyrido[4,3-d]pyrimidin-4-yl)piperazin-1-yl)-2-fluoro-3-(pyrimidin-2-yl)prop-2-en-1-one]
2 nM	C#Cc1c(F)ccc2cc(O)cc(-c3ncc4c(N5CCN(C(=O)/C(F)=C/c6nccs6)CC5)nc(OC[C@]56CCC[C@H]5N(C)CCC6)nc4c3F)c12 [Example 58, (Z)-1-(4-(7-(8-ethynyl-7-fluoro-3-hydroxynaphthalen-1-yl)-8-fluoro-2-(((4aS, 7aR)-1-methyloctahydro-4aH-cyclopenta[b]pyridin-4a-yl)methoxy)pyrido[4,3-d]pyrimidin-4-yl)piperazin-1-yl)-2-fluoro-3-(thiazol-2-yl)prop-2-en-1-one]
2 nM	C#Cc1c(F)ccc2cc(O)cc(-c3ncc4c(N5CCN(C(=O)/C(F)=C/c6ccccn6)CC5)nc(OC[C@]56CCC[C@H]5N(C)CCC6)nc4c3F)c12 [Example 59, (Z)-1-(4-(7-(8-ethynyl-7-fluoro-3-hydroxynaphthalen-1-yl)-8-fluoro-2-(((4aS, 7aR)-1-methyloctahydro-4aH-cyclopenta[b]pyridin-4a-yl)methoxy)pyrido[4,3-d]pyrimidin-4-yl)piperazin-1-yl)-2-fluoro-3-(pyridin-2-yl)prop-2-en-1-one]
180 nM	N#CC[C@H]1CN(c2nc(OC[C@@]34CCCN3C[C@H](F)C4)nc3c(F)c(N4CCOc5cccc(F)c54)ncc23)CCN1C(=O)/C(F)=C/c1ccccn1 [Example 60, 2-((S)-1-((Z)-2-fluoro-3-(pyridin-2-yl)acryloyl)-4-(8-fluoro-7-(5-fluoro-2,3-dihydro-4H-benzo[b][1,4]oxazin-4-yl)-2-(((2R, 7aS)-2-fluorotetrahydro-1H-pyrrolizin-7a(5H)-yl)methoxy)pyrido[4,3-d]pyrimidin-4-yl)piperazin-2-yl)acetonitrile]
300 nM	N#CC[C@H]1CN(c2nc(OC[C@@]34CCCN3C[C@H](F)C4)nc3c(F)c(N4CCOc5cccc(F)c54)ncc23)CCN1C(=O)/C(F)=C/c1nccs1 [Example 61, 2-((S)-1-((Z)-2-fluoro-3-(thiazol-2-yl)acryloyl)-4-(8-fluoro-7-(5-fluoro-2,3-dihydro-4H-benzo[b][1,4]oxazin-4-yl)-2-(((2R, 7aS)-2-fluorotetrahydro-1H-pyrrolizin-7a(5H)-yl)methoxy)pyrido[4,3-d]pyrimidin-4-yl)piperazin-2-yl)acetonitrile]
300 nM	C#Cc1cccc2cccc(-c3ncc4c(N5CCN(C(=O)/C(F)=C/c6nccs6)C[C@@H]5C)nc(OC[C@@]56CCCN5C[C@H](F)C6)nc4c3F)c12 [Example 62, (Z)-1-((S)-4-(7-(8-ethynylnaphthalen-1-yl)-8-fluoro-2-(((2R, 7aS)-2-fluorotetrahydro-1H-pyrrolizin-7a(5H)-yl)methoxy)pyrido[4,3-d]pyrimidin-4-yl)-3-methylpiperazin-1-yl)-2-fluoro-3-(thiazol-2-yl)prop-2-en-1-one]
180 nM	C#Cc1cccc2cccc(-c3ncc4c(N5CCN(C(=O)/C(F)=C/c6ccccn6)C[C@@H]5C)nc(OC[C@@]56CCCN5C[C@H](F)C6)nc4c3F)c12 [Example 63, (Z)-1-((S)-4-(7-(8-ethynylnaphthalen-1-yl)-8-fluoro-2-(((2R, 7aS)-2-fluorotetrahydro-1H-pyrrolizin-7a(5H)-yl)methoxy)pyrido[4,3-d]pyrimidin-4-yl)-3-methylpiperazin-1-yl)-2-fluoro-3-(pyridin-2-yl)prop-2-en-1-one]
7 nM	C#Cc1c(F)ccc2cc(O)cc(-c3ncc4c(N5CCN(C(=O)/C(F)=C/c6nccs6)C[C@@H]5C)nc(OC[C@@]56CCCN5C[C@H](F)C6)nc4c3F)c12 [Example 64, (Z)-1-((S)-4-(7-(8-ethynyl-7-fluoro-3-hydroxynaphthalen-1-yl)-8-fluoro-2-(((2R, 7aS)-2-fluorotetrahydro-1H-pyrrolizin-7a(5H)-yl)methoxy)pyrido[4,3-d]pyrimidin-4-yl)-3-methylpiperazin-1-yl)-2-fluoro-3-(thiazol-2-yl)prop-2-en-1-one]

Source: patent US20240067662A1, “KRAS INHIBITORS” (Bristol-Myers Squibb Company, priority 2022, published 2024)
